# According to article PMC5971309, “Identification of Estrogen Receptor α Antagonists from Natural Products via In Vitro and In Silico Approaches” (Oxidative Medicine and Cellular Longevity, 2018):
# Legend:
# [1] = target: T1, ERα (Homo sapiens, UniProt P03372); assay: green PolarScreen ERα Competitor Assay (fluorescence polarization); format: binding
# T1 construct: purchased Life Technologies
# T1 sequence (P03372 1-595): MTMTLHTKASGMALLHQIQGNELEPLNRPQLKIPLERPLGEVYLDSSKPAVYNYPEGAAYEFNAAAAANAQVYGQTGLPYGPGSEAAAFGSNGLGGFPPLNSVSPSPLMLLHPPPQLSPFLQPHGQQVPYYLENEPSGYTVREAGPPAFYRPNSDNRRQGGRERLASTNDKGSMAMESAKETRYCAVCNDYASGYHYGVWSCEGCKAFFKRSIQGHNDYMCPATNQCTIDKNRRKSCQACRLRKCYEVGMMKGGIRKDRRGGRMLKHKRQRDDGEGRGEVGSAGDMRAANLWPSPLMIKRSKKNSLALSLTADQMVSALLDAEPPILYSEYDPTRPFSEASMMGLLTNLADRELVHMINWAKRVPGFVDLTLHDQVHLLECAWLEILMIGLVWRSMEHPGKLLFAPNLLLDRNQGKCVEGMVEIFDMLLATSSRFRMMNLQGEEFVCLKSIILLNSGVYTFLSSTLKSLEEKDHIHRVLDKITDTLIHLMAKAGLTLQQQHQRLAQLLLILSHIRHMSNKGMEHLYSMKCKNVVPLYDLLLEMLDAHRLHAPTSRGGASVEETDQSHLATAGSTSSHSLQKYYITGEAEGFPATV
# Description: The ERα binding affinities of representative compounds predicted as ERα antagonists were measured by fluorescence polarization procedure using green PolarScreen™ ERα Competitor Assay kit (Life Technologies, CA, United States of America). Briefly, 75 nM ERα together with 4.5 nM fluormone was mixed with a series of concentrations of the test compounds in the assay buffer. Then, they were incubated for 2 h in room temperature in black low volume 384-well assay plate with NBS surface (Corning, NY, United States of America) for fluorescence polarization assay. Subsequently, the detection wavelength was set at excitation wavelength 485 nm and emission wavelength 535 nm with bandwidths of 25/20 nm in EnVision Workstation version 1.7 (PerkinElmer, MA, United States of America). 2104 EnVision® Multilabel Plate Reader was performed for the measurements.
# [2] = tested on: ERα; assay: Luciferase reporter gene assay for ERα in MCF-7 cells; format: cell-based, human; settings: MCF-7 cells transfected with ERE-luc reporter, three concentrations, 24 h
# Description: Cell transfection and luciferase activity assay were utilized to investigate the effects of the compounds on ER transcriptional activation. The human breast cancer cell line MCF-7 was obtained from the Beijing Key Laboratory of Drug Target Research and Drug Screening, Chinese Academy of Medical Sciences (Beijing, China). Dulbecco's Modified Eagle's Medium (DMEM) culture medium containing 10% fetal calf serum (FBS), 100 U/mL penicillin, and 100 μg/mL streptomycin was used as complete culture medium. The culture conditions were at 37°C, saturated humidity, and 5% CO2. The culture medium was changed every day and when the confluence of cells reached 90%, MCF-7 cells were digested with 0.25% trypsin containing 0.02% EDTA and then cultured under the same culture conditions. MCF-7 cells in logarithmic growth phase were resuspended in 3 mL complete culture medium and were seeded on 24-well plates with a density of 1 × 10^5/well overnight. After incubation for 24 h, cells were grown to approximately 60–80% confluence and then washed by culture medium without serum. MCF-7 cells were cotransfected with the reporter plasmid pGL2-ERE3-luc. Based on the manufacturer's instructions, transfection was mediated by lipofectamine 3000 (Invitrogen). After incubation for 12 h, transfection medium was eliminated, and MCF-7 cells were treated with three concentrations of compounds for 24 h. Then, MCF-7 cells were washed with phosphate-buffered saline (PBS) and cell lysis was collected after oscillation with a low speed. Finally, the luciferase activity was determined by dual-luciferase reporter assay system (Promega) according to the product manual.
# [3] = 75 nM ERα, 4.5 nM fluormone, 2 h, room temperature
SMILES,"IC50 [1, 3] [µM]",IC50 ([1]; values in μM) [µM],"Antiestrogenic effects (ERα transactivation, luciferase activity) [2]"
O=c1c(-c2ccc(O)cc2)coc2cc(O)ccc12 [Daidzein],,,antagonist activity was lower than that of genistein
O=c1c(-c2ccc(O)cc2)coc2cc(O)cc(O)c12 [Genistein],,,decrease the expression of the ERα remarkably at a dose-dependent manner
O=C(CCc1ccc(O)cc1)c1c(O)cc(O)cc1O [Phloretin],0.0745 ± 0.0242,,regulated the expression of ERα in MCF-7 cells in a dose-dependent way
C[C@H]1[C@H](C)CC[C@]2(C(=O)O)CC[C@]3(C)C(=CC[C@@H]4[C@@]5(C)CC[C@H](O)C(C)(C)[C@@H]5CC[C@]43C)[C@H]12 [Ursolic acid],,,antiestrogenic effects only at high dose
COc1ccc(-c2cc(=O)c3c(O)cc(O[C@@H]4O[C@H](CO[C@@H]5O[C@@H](C)[C@H](O)[C@@H](O)[C@H]5O)[C@@H](O)[C@H](O)[C@H]4O)cc3o2)cc1O [diosmin],,> 10,
C[C@@H]1O[C@@H](O[C@H]2[C@H](Oc3cc(O)c4c(c3)O[C@H](c3ccc(O)cc3)CC4=O)O[C@H](CO)[C@@H](O)[C@@H]2O)[C@H](O)[C@H](O)[C@H]1O [naringin],,> 10,

# Further lines, with some results ahead:
"IC50 [1, 3] [µM]",IC50 ([1]; values in μM) [µM],SMILES,"Antiestrogenic effects (ERα transactivation, luciferase activity) [2]"
0.066 ± 0.0116,,"O=C(OC1Cc2c(O)cc(O)cc2OC1c1cc(O)c(O)c(O)c1)c1cc(O)c(O)c(O)c1 (single isomer, unassigned; (-)) [EGCG, (−)-epigallocatechin-3-gallate]",
0.0626 ± 0.00934,,O=c1oc2c(O)c(O)cc3c(=O)oc4c(O)c(O)cc1c4c23 [Ellagic acid],decrease the expression of ERα at high and medium concentrations
0.968 ± 0.0709,,O=C1C[C@@H](c2ccc(O)cc2)Oc2cc(O)cc(O)c21 [Naringenin],weak antiestrogenic effects
,> 10,COc1cc(C2Oc3cc([C@H]4Oc5cc(O)cc(O)c5C(=O)[C@@H]4O)ccc3OC2CO)ccc1O (stereo partly shown) [silibinin],
